Measured values: patent US20070128217A1 (priority 2003, published 2007)

How the values were obtained:
[1] = test system: rabbit serum obtained by immunizing a rabbit with the SARS-CoV strain Frankfurt 1; format: binding; set-up: Binding of a rabbit serum to linear peptides / Binding of a rabbit serum to looped peptides / Rabbit serum linear peptides / Rabbit serum looped peptides / Binding of a rabbit serum to linear peptides of protein N of SARS-CoV Urbani (Rabbit serum linear peptides) / Binding of a rabbit serum to looped/cyclic peptides of protein N of SARS-CoV Urbani (Rabbit serum looped peptides): unit not given here
[2] = test system: control sera (pooled serum of ten healthy LUMC hospital workers; commercial negative donor pooled serum from the Dutch bloodbank); format: binding, human; set-up: Binding of Control serum LUMC to linear peptides / Binding of Control serum Blood-bank to linear peptides / Binding of Control serum LUMC to looped peptides / Binding of Control Serum Blood-Bank to Looped peptides / Binding of Control serum LUMC to linear peptides of the protein M of SARS-CoV Urbani / Binding of Control serum Blood-bank to linear peptides of the protein M of SARS-CoV Urbani / Binding of Control serum LUMC to looped peptides of the protein M of SARS-CoV Urbani / Binding of Control Serum Blood-Bank to Looped peptides of the protein M of SARS-CoV Urbani: unit not given here
[3] = test system: antibodies in sera from SARS patients (sera 1a, 1b, 2, 6, 37, 62, London, SARS-yellow, SARS-green); format: binding, human; set-up: Binding of serum 6 to linear peptides of protein X1 of SARS-CoV Urbani / Binding of serum 37 to linear peptides of protein X1 of SARS-CoV Urbani / Binding of serum 6 to looped/cyclic peptide (PEPSCAN-ELISA) / Binding of serum 37 to looped/cyclic peptide (PEPSCAN-ELISA) / Binding of serum 37 to looped/cyclic peptides of protein X1 of SARS-CoV Urbani / Binding of serum 6 to linear peptides of protein X2 / Binding of serum 37 to linear peptides of protein X2 / Binding of serum 37 to looped/cyclic peptides of protein X2 of SARS-CoV Urbani / Binding of serum 6 to linear peptides of protein M of SARS-CoV Urbani / Binding of serum 37 to linear peptides of protein M of SARS-CoV Urbani / Binding of serum 6 to looped/cyclic peptides of protein M of SARS-CoV Urbani / Binding of serum 37 to looped/cyclic peptides of protein M of SARS-CoV Urbani / Binding of serum 6 to linear peptides of protein X3 of SARS-CoV Urbani / Binding of serum 37 to linear peptides of protein X3 of SARS-CoV Urbani / Binding of serum 37 to looped/cyclic peptides of protein X3 of SARS-CoV Urbani / Binding of serum 6 to linear peptides of protein X4 of SARS-CoV Urbani / Binding of serum 37 to linear peptides of protein X4 of SARS-CoV Urbani / Binding of serum 37 to looped/cyclic peptides of protein X4 of SARS-CoV Urbani / Binding of serum 6 to linear peptides of protein X5 of SARS-CoV Urbani / Binding of serum 37 to linear peptides of protein X5 of SARS-CoV Urbani / Binding of serum 37 to looped/cyclic peptides of protein X5 of SARS-CoV Urbani / Binding of serum 6 to linear peptides of protein N of SARS-CoV Urbani / Binding of serum 37 to linear peptides of protein N of SARS-CoV Urbani / Binding of serum 6 to linear peptide (PEPSCAN-ELISA) / Binding of serum 1a to looped/cyclic peptides of protein N of SARS-CoV Urbani / Binding of serum 1b to looped/cyclic peptides of protein N of SARS-CoV Urbani / Binding of serum 2 to looped/cyclic peptides of protein N of SARS-CoV Urbani / Binding of serum 6 to looped/cyclic peptides of protein N of SARS-CoV Urbani / Binding of serum 37 to looped/cyclic peptides of protein N of SARS-CoV Urbani / Binding of serum 62 to looped/cyclic peptides of protein N of SARS-CoV Urbani / Binding of serum London to looped/cyclic peptides of protein N of SARS-CoV Urbani / Binding of serum SARS-green to looped/cyclic peptides of protein N of SARS-CoV Urbani: unit not given here

Sequence	Binding of a rabbit serum to linear peptides [1]	Binding of a rabbit serum to looped peptides [1]	Binding of Control Serum Blood-Bank to Looped peptides [2]	Binding of Control serum Blood-bank to linear peptides [2]	Binding of Control serum LUMC to linear peptides [2]	Binding of Control serum LUMC to looped peptides [2]	Binding of serum 1a to linear peptides of protein X1 of SARS-CoV Urbani [3]	Binding of serum 1b to linear peptides of protein X1 of SARS-CoV Urbani [3]	Binding of serum 2 to linear peptides of protein X1 of SARS-CoV Urbani [3]	Binding of serum 6 to linear peptides of protein X1 of SARS-CoV Urbani [3]	Binding of serum 37 to linear peptides of protein X1 of SARS-CoV Urbani [3]	Binding of serum 62 to linear peptides of protein X1 of SARS-CoV Urbani [3]	Binding of serum London to linear peptides of protein X1 of SARS-CoV Urbani [3]	Binding of serum SARS-green to linear peptides of protein X1 of SARS-CoV Urbani [3]	Binding of serum SARS-yellow to linear peptides of protein X1 of SARS-CoV Urbani [3]	other results
GWLVIGVAFLAVFQS	0.8	0.6	0.8	0.5	0.6	0.7	0.7	0.6	0.5	0.5	0.6	0.6	0.3	0.2	0.5	Binding of serum 1a to looped/cyclic peptide (PEPSCAN-ELISA) [3]: 0.7; Binding of serum 1b to looped/cyclic peptide (PEPSCAN-ELISA) [3]: 0.5; Binding of serum 2 to looped/cyclic peptide (PEPSCAN-ELISA) [3]: 0.7; Binding of serum 6 to looped/cyclic peptide (PEPSCAN-ELISA) [3]: 0.4; Binding of serum 37 to looped/cyclic peptide (PEPSCAN-ELISA) [3]: 0.6; Binding of serum 62 to looped/cyclic peptide (PEPSCAN-ELISA) [3]: 0.8; Binding of serum London to looped/cyclic peptide (PEPSCAN-ELISA) [3]: 0.3; Binding of serum SARS-green to looped/cyclic peptide (PEPSCAN-ELISA) [3]: 0.4; Binding of serum SARS-yellow to looped/cyclic peptide (PEPSCAN-ELISA) [3]: 0.6
GYFTEVYYQLESTQI	0.1	0.5	0.6	0.4	0.4	0.7	0.7	0.5	0.5	0.4	0.6	0.5	0.3	0.3	0.4	Binding of serum 1a to looped/cyclic peptides of protein X1 of SARS-CoV Urbani [3]: 0.6; Binding of serum 1b to looped/cyclic peptides of protein X1 of SARS-CoV Urbani [3]: 0.5; Binding of serum 2 to looped/cyclic peptides of protein X1 of SARS-CoV Urbani [3]: 0.5; Binding of serum 6 to looped/cyclic peptides of protein X1 of SARS-CoV Urbani [3]: 0.4; Binding of serum 37 to looped/cyclic peptides of protein X1 of SARS-CoV Urbani [3]: 0.6; Binding of serum 62 to looped/cyclic peptides of protein X1 of SARS-CoV Urbani [3]: 0.6; Binding of serum London to looped/cyclic peptides of protein X1 of SARS-CoV Urbani [3]: 0.2; Binding of serum SARS-green to looped/cyclic peptides of protein X1 of SARS-CoV Urbani [3]: 0.4; Binding of serum SARS-yellow to looped/cyclic peptides of protein X1 of SARS-CoV Urbani [3]: 0.4
